Data taken from patent US20070213339A1 (Bayer Pharmaceuticals Corporation, priority 2004, published 2007).

Test system: Colo205 human colon carcinoma cell line
Experiment: In vitro tumor cell proliferation assay (MTS, CellTiter 96 Aqueous One Solution)
Type: cell-based
Details: COLO 205, Colo205 cells, 72 hours compound exposure, MTS absorbance at 490 nm, read-out: IC50 (concentration of test compound required to inhibit proliferation of 50% of the cells)
In short: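 Colo205 cells seeded at 2000 cells/well in RPMI-1640 with 10% serum, exposed to compound for 72 h at 37 °C, 5% CO2, in a 5-point dose-response up to 10-20 μM. Viability read by MTS absorbance at 490 nm; IC50 from background-corrected percent inhibition by linear regression.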

CCN(C)Cc1ccc(-n2cc(C(=O)O)c(=O)c3cc(F)c(N4CCN(c5ncccn5)CC4)c(OC(F)(F)Cl)c32)cc1 [Example 165, 8-[chloro(difluoro)methoxy]-1-(4-{[ethyl(methyl)amino]methyl}phenyl)-6-fluoro-4-oxo-7-(4-pyrimidin-2-ylpiperazin-1-yl)-1,4-dihydroquinoline-3-carboxylic acid]
IC50: < 500 nM

O=C(O)c1cn(-c2cccc(CN3CCCCC3)c2)c2c(OC(F)(F)F)c(N3CCN(c4ccc(F)cc4F)CC3)c(F)cc2c1=O [Example 142, 7-[4-(2,4-difluorophenyl)piperazin-1-yl]-6-fluoro-4-oxo-1-[3-(piperidin-1-ylmethyl)phenyl]-8-(trifluoromethoxy)-1,4-dihydroquinoline-3-carboxylic acid]
IC50: 2000 to 20000 nM

COC[C@@H]1CCCN1Cc1ccc(-n2cc(C(=O)O)c(=O)c3cc(F)c(N4CCN(c5ccccn5)CC4)c(Cl)c32)cc1 [Example 24, 8-chloro-6-fluoro-1-(4-{[(2S)-2-(methoxy-methyl)pyrrolidin-1-yl]methyl}phenyl)-4-oxo-7-(4-pyridin-2-ylpiperazin-1-yl)-1,4-dihydroquinoline-3-carboxylic acid]
IC50: < 500 nM

O=C(O)c1cn(-c2ccc(CN3CCCC3)cc2F)c2c(Cl)c(N3CCN(c4ccccc4)CC3)c(F)cc2c1=O [Example 43, 8-chloro-6-fluoro-1-[2-fluoro-4-(pyrrolidin-1-ylmethyl)phenyl]-4-oxo-7-(4-phenylpiperazin-1-yl)-1,4-dihydroquinoline-3-carboxylic acid]
IC50: < 500 nM

O=C(O)c1cn(-c2cccc(CN3CCCCC3)c2)c2c(Cl)c(N3CCN(c4ccccn4)CC3)c(F)cc2c1=O [Example 65, 8-chloro-6-fluoro-4-oxo-1-[3-(piperidin-1-yl-methyl)phenyl]-7-(4-pyridin-2-ylpiperazin-1-yl)-1,4-dihydroquinoline-3-carboxylic acid]
IC50: 2000 to 20000 nM

O=C(O)c1cn(-c2ccc(CN3CCCC3)cc2)c2c(OC(F)(F)Cl)c(N3CCN(c4ccccn4)CC3)c(F)cc2c1=O [Example 146, 8-[chloro(difluoro)methoxy]-6-fluoro-4-oxo-7-(4-pyridin-2-ylpiperazin-1-yl)-1-[4-(pyrrolidin-1-ylmethyl)phenyl]-1,4-dihydroquinoline-3-carboxylic acid]
IC50: < 500 nM

CCN(CC)Cc1ccc(-n2cc(C(=O)O)c(=O)c3cc(F)c(N4CCN(c5ccc(C(C)=O)cc5)CC4)c(OC)c32)cc1 [Example 116, 7-[4-(4-acetylphenyl)piperazin-1-yl]-1-{4-[(diethylamino)methyl]phenyl}-6-fluoro-8-methoxy-4-oxo-1,4-dihydroquinoline-3-carboxylic acid]
IC50: < 500 nM

CN(C)Cc1ccc(-n2cc(C(=O)O)c(=O)c3cc(F)c(N4CCN(c5cccc(Cl)c5)CC4)c(OC(F)(F)F)c32)cc1 [Example 130, 7-[4-(3-chlorophenyl)piperazin-1-yl]-1-{4-[(dimethylamino)methyl]phenyl}-6-fluoro-4-oxo-8-(trifluoromethoxy)-1,4-dihydroquinoline-3-carboxylic acid]
IC50: < 500 nM

COc1c(N2CCN(c3ncccn3)CC2)c(F)cc2c(=O)c(C(=O)O)cn(-c3ccc(CN4CCCCC4)cc3)c12 [Example 193, 6-fluoro-8-methoxy-4-oxo-1-(4-piperidin-1-ylmethyl-phenyl)-7-(4-pyrimidine-2-yl-piperazine-1-yl]-1,4-dihydroquinoline-3-carboxylic acid]
IC50: < 500 nM

O=C(O)c1cn(-c2ccc(CN3CCCC3)cc2F)c2c(Cl)c(N3CCN(c4ccc(Cl)cc4)CC3)c(F)cc2c1=O [Example 42, 8-chloro-7-[4-(4-chlorophenyl)piperazin-1-yl]-6-fluoro-1-[2-fluoro-4-(pyrrolidin-1-ylmethyl)phenyl]-4-oxo-1,4-dihydroquinoline-3-carboxylic acid]
IC50: < 500 nM

O=C(O)c1cn(-c2ccc(CNC3CCCCC3)cc2)c2c(Cl)c(N3CCN(c4ncccn4)CC3)c(F)cc2c1=O [Example 189, 8-chloro-1-(4-cyclohexylaminomethyl-phenyl)-6-fluoro-4-oxo-7-(4-pyrimidin-2-yl-piperazin-1-yl)-1,4-dihydroquinoline-3-carboxylic acid]
IC50: < 500 nM

CCN(CC)Cc1ccc(-n2cc(C(=O)O)c(=O)c3cc(F)c(N4CCN(c5ccc(F)cc5)CC4)c(OC)c32)cc1 [Example 105, 1-{4-[(diethylamino)methyl]phenyl}-6-fluoro-7-[4-(4-fluorophenyl)piperazin-1-yl]-8-methoxy-4-oxo-1,4-dihydroquinoline-3-carboxylic acid]
IC50: < 500 nM

COc1c(N2CCN(c3ccc(C(F)(F)F)cc3)CC2)c(F)cc2c(=O)c(C(=O)O)cn(-c3ccc(CN4CCCC4)cc3)c12 [Example 82]
IC50: 2000 to 20000 nM

CC1C=CC(C)N1Cc1ccc(-n2cc(C(=O)O)c(=O)c3cc(F)c(N4CCN(c5ncccn5)CC4)c(Cl)c32)cc1 (stereo not drawn) [Example 20, 8-chloro-1-{4-[(2,5-dimethyl-2,5-dihydro-1H-pyrrol-1-yl)methyl]phenyl}-6-fluoro-4-oxo-7-(4-pyrimidin-2-ylpiperazin-1-yl)-1,4-dihydroquinoline-3-carboxylic acid]
IC50: 2000 to 20000 nM

CC1CCCN1Cc1ccc(-n2cc(C(=O)O)c(=O)c3cc(F)c(N4CCN(c5ccc(F)cc5)CC4)c(Cl)c32)cc1 (stereo not drawn) [Example 18, 8-chloro-6-fluoro-7-[4-(4-fluorophenyl)-piperazin-1-yl]-1-{4-[(2-methylpyrrolidin-1-yl)methyl]phenyl}-4-oxo-1,4-dihydroquinoline-3-carboxylic acid]
IC50: < 500 nM

COc1c(N2CCN(c3ccc(F)cc3F)CC2)c(F)cc2c(=O)c(C(=O)O)cn(-c3ccc(CN(C)C)cc3)c12 [Example 101, 7-[4-(2,4-difluorophenyl)piperazin-1-yl]-1-{4-[(dimethylamino)methyl]phenyl}-6-fluoro-8-methoxy-4-oxo-1,4-dihydroquinoline-3-carboxylic acid]
IC50: 500 to 2000 nM

O=C(O)c1cn(-c2ccc(CN3CCCC3)c(F)c2)c2c(Cl)c(N3CCN(c4ccc(Cl)cc4)CC3)c(F)cc2c1=O [Example 187, 8-chloro-7-[4-(4-chlorophenyl)-piperazine-1-yl]-6-fluoro-1-(3-fluoro-4-pyrrolidin-1-ylmethyl-phenyl)-4-oxo-1,4-dihydroquinoline-3-carboxylic acid]
IC50: < 500 nM

COc1c(N2CCN(c3ccccc3)CC2)c(F)cc2c(=O)c(C(=O)O)cn(-c3ccc(CN(C)C)cc3)c12 [Example 97, 1-{4-[(dimethylamino)methyl]phenyl}-6-fluoro-8-methoxy-4-oxo-7-(4-phenylpiperazin-1-yl)-1,4-dihydroquinoline-3-carboxylic acid]
IC50: < 500 nM

CCN(CC)Cc1ccc(-n2cc(C(=O)O)c(=O)c3cc(F)c(N4CCN(c5ccccc5F)CC4)c(OC(F)(F)F)c32)cc1 [Example 135, 1-{4-[(diethylamino)methyl]phenyl}-6-fluoro-7-[4-(2-fluorophenyl)piperazin-1-yl]-4-oxo-8-(trifluoromethoxy)-1,4-dihydroquinoline-3-carboxylic acid]
IC50: < 500 nM

O=C(O)c1cn(-c2cccc(CN3CCCCC3)c2)c2c(OC(F)(F)F)c(N3CCN(c4cccc(Cl)c4)CC3)c(F)cc2c1=O [Example 145, 7-[4-(3-chlorophenyl)piperazin-1-yl]-6-fluoro-4-oxo-1-[3-(piperidin-1-ylmethyl)phenyl]-8-(trifluoromethoxy)-1,4-dihydroquinoline-3-carboxylic acid]
IC50: 500 to 2000 nM

CCN(CC)Cc1ccc(-n2cc(C(=O)O)c(=O)c3cc(F)c(N4CCN(c5cccc(Cl)c5)CC4)c(OC(F)(F)F)c32)cc1 [Example 136, 7-[4-(3-chlorophenyl)piperazin-1-yl]-1-{4-[(diethylamino)methyl]phenyl}-6-fluoro-4-oxo-8-(trifluoromethoxy)-1,4-dihydroquinoline-3-carboxylic acid]
IC50: < 500 nM

O=C(O)c1cn(-c2ccc(CN3CCCC3)cc2)c2c(OC(F)(F)Cl)c(N3CCN(c4ccccc4)CC3)c(F)cc2c1=O [Example 152, 8-[chloro(difluoro)methoxy]-6-fluoro-4-oxo-7-(4-phenylpiperazin-1-yl)-1-[4-(pyrrolidin-1-ylmethyl)phenyl]-1,4-dihydroquinoline-3-carboxylic acid]
IC50: < 500 nM

CN(C)Cc1ccc(-n2cc(C(=O)O)c(=O)c3cc(F)c(N4CCN(c5ccc(Cl)cc5)CC4)c(OC(F)(F)Cl)c32)cc1 [Example 156, 8-[chloro(difluoro)methoxy]-7-[4-(4-chlorophenyl)piperazin-1-yl]-1-{4-[(dimethylamino)methyl]phenyl}-6-fluoro-4-oxo-1,4-dihydroquinoline-3-carboxylic acid]
IC50: < 500 nM

COCCN(C)Cc1ccc(-n2cc(C(=O)O)c(=O)c3cc(F)c(N4CCN(c5ccccn5)CC4)c(Cl)c32)cc1 [Example 55]
IC50: 500 to 2000 nM

O=C(O)c1cn(-c2ccc(CNCC3CCCCC3)cc2)c2c(Cl)c(N3CCN(c4ncccn4)CC3)c(F)cc2c1=O [Example 190, 8-chloro-1-{4-[(4-cyclohelmethyl-amino)-methyl]-phenyl}-6-fluoro-4-oxo-7-(4-pyrimidin-2-yl-piperazin-1-yl)-1,4-dihydroquinoline-3-carboxylic acid]
IC50: 2000 to 20000 nM

CON(C)Cc1ccc(-n2cc(C(=O)O)c(=O)c3cc(F)c(N4CCN(c5ccccc5C#N)CC4)c(Cl)c32)cc1 [Example 53, 8-chloro-7-[4-(2-cyanophenyl)piperazin-1-yl]-6-fluoro-1-(4-{[methoxy(methyl)amino]methyl}phenyl)-4-oxo-1,4-dihydroquinoline-3-carboxylic acid]
IC50: 2000 to 20000 nM

O=C(O)c1cn(-c2ccc(CN3CCCC3)cc2)c2c(Cl)c(N3CCN(c4ccc(F)cc4F)CC3)c(F)cc2c1=O [Example 8, 8-chloro-7-[4-(2,4-difluorophenyl)piperazin-1-yl]-6-fluoro-4-oxo-1-[4-(pyrrolidin-1-ylmethyl)phenyl]-1,4-dihydroquinoline-3-carboxylic acid]
IC50: 500 to 2000 nM
